≈ marks a conversion by molar mass, not a printed value.
What was measured:
mouse spleen cell = test: cells; assay type: cell-based; details: Mus musculus, 24 h, read-out: Interferon-inducing activity: Minimum effective concentration
[1] = test system: human peripheral blood mononuclear cells (PBMC); test: Interferon-inducing activity in human peripheral blood mononuclear cells (PBMC), IFN-α ELISA; assay type: cell-based; details: 24 h;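 note: IFN-α in pg/ml with a 1.25 pg/ml detection limit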
Method: Peripheral bloods were sampled from 5 healthy volunteers using a syringe containing heparin, and peripheral blood mononuclear cells (PBMC) were prepared by density gradient centrifugation utilizing the Lymphoprep™ (NYCOMED PHARMA AS). PBMCs were washed twice in serum-free RPMI 1640 medium and adjusted at 1×10^6 cells/ml in RPMI 1640 medium comprising 10% fetal bovine serum. The product was cultured in the presence of a test compound dissolved in dimethyl sulfoxide (final concentration: 0.1%) in an incubator in the presence of 5% CO^2 at 37° C. for 24 hours. As a control, 0.1% dimethyl sulfoxide containing no test compound was used. The culture supernatant was aseptically collected by filtration. Thereafter, the supernatant was cryopreserved at −20° C. or lower until it was subjected to the assay for IFN-inducing activity. Human IFN-α in the culture supernatant was quantified using a highly sensitive ELISA system (Amersham).

IL-4 production = test: Inhibitory activity against Th2 cytokine produced from sensitized spleen cells: IL-4; assay type: cell-based, mouse; details: Mus musculus, 72 h, OVA-sensitized BALB/c spleen cells, 3 days, read-out: Inhibitory activity against IL-4 production
In short: (§1)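 BALB/c mice immunized i.p. with 10 μg ovalbumin on alum, boosted at day 14; spleen cells taken 7 days later. Cells (5×10^6/well) restimulated with ovalbumin 0.5 mg/ml plus test compound, cultured 3 days at 37° C, 5% CO2. Supernatant cytokine quantified by ELISA.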

IL-5 production = test: Inhibitory activity against Th2 cytokine produced from sensitized spleen cells: IL-5; assay type: cell-based, mouse; details: Mus musculus, 72 h, OVA-sensitized BALB/c spleen cells, 3 days, read-out: Inhibitory activity against IL-5 production
In short: as §1

[2] = Gastrointestinal absorption in rat (drug level in blood by HPLC); assay type: in vivo; details: blood, dose 3 mg/kg oral, SD male rat
Method: A test compound was suspended in an aqueous solution of 0.5% carboxymethylcellulose, and the resulting suspension was orally administered to an SD male rat. Blood was sampled with the elapse of time, and the level of the drug in blood was assayed by HPLC.

[3] = test system: rat model of eosinophil leukocytic infiltration; test: Rat model of eosinophil leukocytic infiltration (OVA, bronchoalveolar lavage); assay type: in vivo; details: 2.5 hours before induction, lavage 24 hours after
Method: A rat was immunized intraperitoneally with 1 ml of a solution containing 1 mg of ovalbumin (OVA) and 100 mg of Al(OH)3 on day 0 and day 7. On day 14, a 1% OVA solution was sprayed for 15 minutes using a ultrasonic nebulizer to induce reactions. A test compound was administered intratracheally 2.5 hours before the induction. Bronchoalveolar lavage was performed 24 hours after the induction, and eosinocytes in the wash was stained with Hinkelman to count the number of stained cells. Sensi.−/Challe.+, CMC-Na, and Fluticasone were used as controls. FIG. 1 and the following table show the results.

Renca cells = test: Antitumor effect in tumor-bearing mouse model (Renca); assay type: in vivo; details: Renca in BALB/c mice, 5 times every 4 days
Method: Murine renal adenocarcinoma-derived Renca cells (obtained from Iwate Medical University) were intradermally transplanted to the left ventral portions of 6-week-old BALB/c male mice (Charles River Japan, Inc.) at 5×10^4 cells/0.05 ml/mouse. Their body weights were measured on the next day, and they were divided into 5 groups (each group comprising 6 mice) in such a manner that the average body weights were substantially the same among groups. Vehicles (an aqueous solution of 0.5% carboxymethylcellulose (hereinafter referred to as “CMC-Na”)) and the compound of Example 27 (1 mg/kg and 3 mg/kg) were forcibly administered orally using an oral Sonde (10 ml/kg). Mouse interferon a (hereinafter referred to as “mIFN-α”) was intradermally administered to mice through their backs in amounts of 1×10^4 U/0.1 ml and 5×10^4 U/0.1 ml per mouse. Administration was carried out 5 times every 4 days. The longer diameter (L, mm) and the shorter diameter (W, mm) of the generated tumors were measured twice a week, and the tumor volumes (V, mm^3) were calculated (V=L×W^2). Also, significant difference was examined in accordance with Steel's multiple comparison. […]
A surveillance period of about 30 days after the transplantation was provided, the tumor volume and the body weight were monitored, and an antitumor effect against the Renca cells was evaluated. […]

[4] = Solubility in citric acid/disodium phosphate buffers; details: thermodynamic from solid
Method: 5.53% citric acid (monohydrate) and 1.75% disodium phosphate (anhydrous) were mixed together to prepare buffers (pH 2.5, 5.5, 7.4). A compound was added thereto, the mixture was stirred in a vortex mixer and subjected to ultrasonication for 30 minutes. Thereafter, the resultant was stirred in a vortex mixer again and then centrifuged at 15,000 rpm for 20 minutes. The levels of the compounds in the supernatants were then quantified by HPLC.

male cynomolgus monkeys = test: Interferon-inducing activity in cynomolgus monkey (in vivo), serum interferon titer and vomition; details: cynomolgus monkey, in vivo

CCCCNc1nc(N)c2nc(O)n(Cc3ccc(C)nc3)c2n1 [Example 27, 2-Butylamino-8-hydroxy-9-(6-methyl-3-pyridylmethyl)adenine]
minimal effective concentration (mouse spleen cell): 0.003 µM | Interferon-inducing activity (human IFN-α in culture supernatant) ([1]; concentration 1 nM): 6 ± 3 pg/mL | Interferon-inducing activity (human IFN-α in culture supernatant) ([1]; concentration 3 nM): 26 ± 22 pg/mL | Interferon-inducing activity (human IFN-α in culture supernatant) ([1]; concentration 10 nM): 56 ± 37 pg/mL | Interferon-inducing activity (human IFN-α in culture supernatant) ([1]; concentration 30 nM): 59 ± 33 pg/mL | activity at 0.001 µM (IL-4 production; concentration 1 nM): 30% | activity at 0.01 µM (IL-4 production; concentration 10 nM): 1% | activity at 0.1 µM (IL-4 production; concentration 100 nM): < 1% | activity at 0.001 µM (IL-5 production; concentration 1 nM): 68% | activity at 0.01 µM (IL-5 production; concentration 10 nM): 20% | activity at 0.1 µM (IL-5 production; concentration 100 nM): 12% | Cmax ([2]; read-out: Cmax): 565 ng/mL | Tmax ([2]; read-out: Tmax): 30 min | eosinocytes in bronchoalveolar lavage, Average ([3]; 0.001 mg/kg intratracheal): 383.85 ×10^4 cells | eosinocytes in bronchoalveolar lavage, Average ([3]; 0.01 mg/kg intratracheal): 186.77 ×10^4 cells | eosinocytes in bronchoalveolar lavage, Average ([3]; 0.1 mg/kg intratracheal): 46.84 ×10^4 cells | antitumor effect compared with mIFN-α (Renca cells; 1 and 3 mg/kg oral): equivalent to or higher than that attained by the administration of mIFN-α | tumor volume compared with the vehicle group (Renca cells; Example 27 1 and 3 mg/kg oral, mIFN-α 1×10^4 and 5×10^4 U intradermal, P<0.05): significantly smaller | solubility at 30 min ([4]; pH 2.5, aqueous buffer): 610 µg/mL (≈ 1860 µM) | solubility at 30 min ([4]; pH 5.5, aqueous buffer): 5 µg/mL (≈ 15.3 µM) | solubility at 30 min ([4]; pH 7.4, aqueous buffer): 2 µg/mL (≈ 6.11 µM) | interferon titer in blood serum (average±SE) (male cynomolgus monkeys): 14,488±6365 U/ml
